Values joined by “and” are separate entries in the source; they are usually repeats but may differ in a detail not shown here. Equal values may be shown once.

In the assay the target is ROCK2 (human) (UniProt O75116). Description: Inhibition of ROCK2 Kinase Activity.
Chain of ROCK2 (human) (O75116 whole entry, looked up): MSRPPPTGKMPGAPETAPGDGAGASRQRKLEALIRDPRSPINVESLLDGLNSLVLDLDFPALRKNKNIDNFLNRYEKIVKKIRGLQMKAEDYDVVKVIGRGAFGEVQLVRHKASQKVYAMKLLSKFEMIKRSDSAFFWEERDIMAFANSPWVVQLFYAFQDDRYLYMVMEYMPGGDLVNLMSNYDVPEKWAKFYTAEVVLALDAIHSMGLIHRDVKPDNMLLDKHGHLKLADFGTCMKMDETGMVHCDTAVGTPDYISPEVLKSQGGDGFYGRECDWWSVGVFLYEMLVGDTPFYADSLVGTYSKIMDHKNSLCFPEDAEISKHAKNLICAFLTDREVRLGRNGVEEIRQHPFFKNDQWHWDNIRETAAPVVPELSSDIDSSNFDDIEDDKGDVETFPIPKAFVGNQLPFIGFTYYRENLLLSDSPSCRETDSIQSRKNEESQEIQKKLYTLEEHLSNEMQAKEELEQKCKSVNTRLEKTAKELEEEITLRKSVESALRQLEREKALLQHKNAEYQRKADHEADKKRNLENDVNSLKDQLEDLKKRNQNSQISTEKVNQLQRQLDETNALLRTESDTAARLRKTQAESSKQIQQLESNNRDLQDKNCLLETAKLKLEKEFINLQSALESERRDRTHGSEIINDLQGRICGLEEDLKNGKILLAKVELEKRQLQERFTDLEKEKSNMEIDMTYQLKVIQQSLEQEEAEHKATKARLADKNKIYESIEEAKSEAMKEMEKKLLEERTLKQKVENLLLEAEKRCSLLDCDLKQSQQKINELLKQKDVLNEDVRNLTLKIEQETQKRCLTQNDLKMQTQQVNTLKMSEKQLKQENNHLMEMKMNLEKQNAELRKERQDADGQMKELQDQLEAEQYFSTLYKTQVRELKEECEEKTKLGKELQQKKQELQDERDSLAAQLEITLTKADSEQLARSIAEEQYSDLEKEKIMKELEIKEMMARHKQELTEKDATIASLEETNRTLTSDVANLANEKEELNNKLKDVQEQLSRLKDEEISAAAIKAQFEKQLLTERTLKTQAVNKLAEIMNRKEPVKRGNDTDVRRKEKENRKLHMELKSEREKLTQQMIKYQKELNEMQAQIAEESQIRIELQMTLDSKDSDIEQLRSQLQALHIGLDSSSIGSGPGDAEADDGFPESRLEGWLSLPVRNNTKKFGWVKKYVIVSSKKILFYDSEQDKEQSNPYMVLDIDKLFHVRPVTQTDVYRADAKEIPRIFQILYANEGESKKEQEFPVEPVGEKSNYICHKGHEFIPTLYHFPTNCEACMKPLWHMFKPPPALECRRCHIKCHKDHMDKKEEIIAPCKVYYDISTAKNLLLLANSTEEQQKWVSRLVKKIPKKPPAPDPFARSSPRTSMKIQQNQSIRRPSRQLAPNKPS
`CCC(N)[C@]1(c2cccc(Br)c2)CC[C@H](Oc2cc3cc[nH]c(=O)c3cc2Cl)CC1` (some centres undefined): the IC50 is at most 10 nM. Take `NC(C1CCC(Oc2cc3cc[nH]c(=O)c3cc2Cl)CC1)C1CC1` (centres undefined): the IC50 fell in the range of 100 to 1000 nM. Consider `NC(c1ccc(F)cc1)C1CCC(Oc2cc3cc[nH]c(=O)c3cc2Cl)CC1` (centres undefined), for which the IC50 was at most 10 nM. With `CCC(N)(CC)C1CCC(Oc2cc3cc[nH]c(=O)c3cc2Cl)CC1` (centres undefined), the IC50 was 100 to 1000 nM and 10 to 100 nM.

`CC[C@@H](N)[C@]1(c2ccc(F)cc2)CC[C@H](Oc2cc3cc[nH]c(=O)c3cc2Cl)CC1` returned an IC50 of at most 10 nM. `CCC(N)C1(c2ccc(F)cc2)CC(Oc2cc3cc[nH]c(=O)c3cc2Cl)C1` (centres undefined) showed a half-maximal inhibitory concentration (IC50) of 100 to 1000 nM. `CC(N)(C1CCCC1)C1CCC(Oc2cc3cc[nH]c(=O)c3cc2Cl)CC1` (centres undefined): the IC50 lay within 100 to 1000 nM. For `CCC(N)C1CCC(Oc2cc3cc[nH]c(=O)c3cc2Cl)CC1` (centres undefined), the IC50 is 10 to 100 nM. Consider `CC(N)(C1CCC(Oc2cc3cc[nH]c(=O)c3cc2Cl)CC1)C1CC1` (centres undefined), for which the IC50 is 100 to 1000 nM. In the case of `N[C@@H](c1ccccc1)[C@]1(c2ccccc2)CC[C@@H](Oc2cc3cc[nH]c(=O)c3cc2Cl)CC1`, the IC50 is 100 to 1000 nM.

In the case of `N[C@H](c1ccccc1)[C@]1(c2ccccc2)CC[C@@H](Oc2cc3cc[nH]c(=O)c3cc2Cl)CC1`, the IC50 lay in the range of 10 to 100 nM.

In the case of `CCCC(C)(N)C1CCC(Oc2cc3cc[nH]c(=O)c3cc2Cl)CC1` (centres undefined), the concentration for half-maximal inhibition (IC50) fell in the range of 10 to 100 nM. Compound `CC[C@H](N)[C@]1(c2ccccc2)CC[C@H](Oc2cc3cc[nH]c(=O)c3cc2Cl)CC1` returned an IC50 of at most 10 nM.

`N[C@@H](c1ccc(F)cc1)C1CCC(Oc2cc3cc[nH]c(=O)c3cc2Cl)CC1` (some centres undefined) displayed an IC50 of at most 10 nM. `COc1ccc(C(N)[C@H]2CC[C@@H](Oc3cc4cc[nH]c(=O)c4cc3Cl)CC2)cc1` (some centres undefined) had an IC50 of at most 10 nM. `CC[C@@H](N)[C@]1(c2ccccc2)CC[C@@H](Oc2cc3cc[nH]c(=O)c3cc2Cl)CC1` had an IC50 of 10 to 100 nM. Compound `COc1ccc(C(N)[C@H]2CC[C@H](Oc3cc4cc[nH]c(=O)c4cc3Cl)CC2)cc1` (some centres undefined) returned a 50% inhibitory concentration (IC50) of 10 to 100 nM. As for `COc1ccc(C(C)(N)C2CCC(Oc3cc4cc[nH]c(=O)c4cc3Cl)CC2)cc1` (centres undefined), the figure is 10 to 100 nM; as for `Cc1ccc(C(N)C2CCC(Oc3cc4cc[nH]c(=O)c4cc3Cl)CC2)cc1` (centres undefined), ≤ 10 nM and 10 to 100 nM. The compound `CC(N)(c1ccc(F)cc1)C1CCC(Oc2cc3cc[nH]c(=O)c3cc2Cl)CC1` (centres undefined) displayed an IC50 of 10 to 100 nM.

In the case of `CCC(N)[C@]1(c2ccc(C)c(OC)c2)CC[C@H](Oc2cc3cc[nH]c(=O)c3cc2Cl)CC1` (some centres undefined), the IC50 is at most 10 nM. To `CC[C@@H](N)[C@]1(c2ccccc2)CC[C@H](Oc2cc3cc[nH]c(=O)c3cc2Cl)CC1` belongs at most 10 nM; to `CC(N)(c1ccccc1)C1CCC(Oc2cc3cc[nH]c(=O)c3cc2Cl)CC1` (centres undefined), 10 to 100 nM; to `N[C@H](c1ccc(F)cc1)C1CCC(Oc2cc3cc[nH]c(=O)c3cc2Cl)CC1` (some centres undefined), 100 to 1000 nM.

(Values after the Kinase Knowledgebase extract (Sharma et al. 2016).)
